# Where a name gives a salt, the structure may show the parent alone.
# Assays:
# Type in all cases: cell-based
# [1] = molecular target: T1, EGFR L858R+T790M, endogenous (NCI-H1975) (Homo sapiens, UniProt P00533, L858R/T790M); test: pEGFR Y1068 ELISA assay, NCI-H1975 cells; details: inhibition of phosphorylation of EGFR at Tyr1068; NCI-H1975 NSCLC cells; 2 hr compound incubation
# T1 construct: NCI-H1975 (EGFR L858R+T790M, endogenous); host or cells: NCI-H1975
# Protocol: (§1) Phosphorylation of EGFR at Y1068 was measured by PathScan® Phospho-EGF Receptor (Try1068) Sandwich ELISA kit (#7240, Cell Signaling Technology®, Danvers, Mass.). The PathScan® Phospho-EGF Receptor (Tyr1068) Sandwich ELISA Kit is a solid phase sandwich enzyme-linked immunosorbent assay (ELISA) that detects endogenous levels of phospho-EGF Receptor (Tyr1068) protein. […] All cells were cultured according to ATCC recommendations. A549, NCI-H1975, PC9, and NCI-H3255 cells were grown in RPMI media (Invitrogen, Carlsbad, Calif.) supplemented with 10% FBS (Sigma, St Louis, Mo.), and with 1% Penn/Strep (Invitrogen). PC9-DRH cells were grown in RPMI with 10% FBS and 1 μM dacomitinib.
# (§2) Cells were plated at 40,000/well in complete culture media (50 μL/well) on the bottom of clear tissue culture treated microtiter plates (#3595, Corning Inc, Corning, N.Y.) and allowed to adhere overnight at 37° C., 5% CO2. The following day, compound dilution plates were prepared in 96 well clear V-bottom 0.5 mL polypropylene block plates (#3956, Corning, Inc). Each compound was prepared as a DMSO stock solution (10 mM). Compounds were tested in duplicate on each plate, with an 11-point serial dilution curve (1:3 dilution). Compound treatment (50 μL) was added from the compound dilution plate to the cell plate. […] Plates were then incubated for 2 hr at 37° C., 5% CO2. For A549 (EGFR wildtype) assay, cells were plated in full-serum (10%) media for 24 hr prior to compound treatment; cells were treated in full serum media as described and then stimulated for 10 min with EGF (40 ng/mL/starvation media, Invitrogen). Immediately prior to the end of the incubation, ice-cold lysis buffer was prepared (1× Cell Lysis Buffer (#9803, Cell Signaling Technology), 1 mM sodium orthovanadate (Na3VO4, #96508, Sigma), 1 mM phenylmethanesulfonyl fluoride (PMSF, 52332, CalBiochem/EMD Chemicals), complete Mini EDTA-free Protease Inhibitor Cocktail Tablet (1 tablet/10 mL, #11836170001, Roche, Indianapolis, Ind.), and PhosSTOP Phosphatase Inhibitor Cocktail Tablet (1 tablet/10 mL, #04906837001, Roche) in pure water. At the end of 2 hr, media was flicked off and cells were washed once with ice-cold 1 mM Na3VO4 in PBS (100 μL/well, Invitrogen). The wash was then flicked off and ice-cold lysis buffer was added to the cells (50 μL/well). The plate was shaken for 20-30 min at 4° C. to completely lyse the cells. Sample diluent (50 μL/well) was added to the ELISA plate, and the lysate (50 μL) was diluted into the sample diluent in each well of the ELISA plate. Plates were sealed and incubated overnight at 4° C. with shaking. The next day, wells were washed four times with 1× Wash Buffer; plates were taped on lint-free paper after the final wash prior to adding Add Detection Antibody (green, 100 μL/well) to each well and incubating for 1 hr at 37° C. After incubation, wells were washed as described. HRP-Linked secondary antibody (red, 100 μL/well) was added to each well and incubated for 30 min at 37° C. After incubation, the wells were washed as described. TMB Substrate (100 μL/well) was added to each well and the plate incubated for 10 min at 37° C. or 30 min at rt maximum. Stop Solution (100 μL/well) was added to each well at the end of the incubation and plates were shaken gently for a few seconds. Absorbance was read at 450 nm within 30 min after addition of Stop Solution on a PerkinElmer EnVision Excite Multilabel Reader Method for Absorbance or on a Molecular Devices SpectraMax^384 Reader for absorbance. Data were analyzed using a four-parameter fit in Microsoft Excel.
# [2] = molecular target: T2, EGFR wildtype, endogenous (A549) (Homo sapiens, UniProt P00533); test: pEGFR Y1068 ELISA assay, A549 cells; details: inhibition of phosphorylation of EGFR at Tyr1068; A549 NSCLC cells; 2 hr compound incubation, then stimulated 10 min with EGF (40 ng/mL)
# T2 construct: A549 (EGFR wildtype, endogenous); host or cells: A549 (stimulated with EGF)
# Protocol: as §1, §2
# EGFR del/T790M (PC9-DRH) = molecular target: T3, EGFR del/T790M (PC9-DRH) (Homo sapiens, UniProt P00533, DEL746-750/T790M); test: pEGFR Y1068 ELISA assay, PC9-DRH cells; details: inhibition of phosphorylation of EGFR at Tyr1068; PC9-DRH cells (dacomitinib resistant); 2 hr compound incubation
# T3 construct: detects endogenous levels of phospho-EGF Receptor (Tyr1068) protein; endogenous in cells; host or cells: PC9-DRH (dacomitinib-resistant derivative of PC9, generated in house)
# T3 sequence (P00533 with tags, fused parts or gaps DEL746-750/T790M): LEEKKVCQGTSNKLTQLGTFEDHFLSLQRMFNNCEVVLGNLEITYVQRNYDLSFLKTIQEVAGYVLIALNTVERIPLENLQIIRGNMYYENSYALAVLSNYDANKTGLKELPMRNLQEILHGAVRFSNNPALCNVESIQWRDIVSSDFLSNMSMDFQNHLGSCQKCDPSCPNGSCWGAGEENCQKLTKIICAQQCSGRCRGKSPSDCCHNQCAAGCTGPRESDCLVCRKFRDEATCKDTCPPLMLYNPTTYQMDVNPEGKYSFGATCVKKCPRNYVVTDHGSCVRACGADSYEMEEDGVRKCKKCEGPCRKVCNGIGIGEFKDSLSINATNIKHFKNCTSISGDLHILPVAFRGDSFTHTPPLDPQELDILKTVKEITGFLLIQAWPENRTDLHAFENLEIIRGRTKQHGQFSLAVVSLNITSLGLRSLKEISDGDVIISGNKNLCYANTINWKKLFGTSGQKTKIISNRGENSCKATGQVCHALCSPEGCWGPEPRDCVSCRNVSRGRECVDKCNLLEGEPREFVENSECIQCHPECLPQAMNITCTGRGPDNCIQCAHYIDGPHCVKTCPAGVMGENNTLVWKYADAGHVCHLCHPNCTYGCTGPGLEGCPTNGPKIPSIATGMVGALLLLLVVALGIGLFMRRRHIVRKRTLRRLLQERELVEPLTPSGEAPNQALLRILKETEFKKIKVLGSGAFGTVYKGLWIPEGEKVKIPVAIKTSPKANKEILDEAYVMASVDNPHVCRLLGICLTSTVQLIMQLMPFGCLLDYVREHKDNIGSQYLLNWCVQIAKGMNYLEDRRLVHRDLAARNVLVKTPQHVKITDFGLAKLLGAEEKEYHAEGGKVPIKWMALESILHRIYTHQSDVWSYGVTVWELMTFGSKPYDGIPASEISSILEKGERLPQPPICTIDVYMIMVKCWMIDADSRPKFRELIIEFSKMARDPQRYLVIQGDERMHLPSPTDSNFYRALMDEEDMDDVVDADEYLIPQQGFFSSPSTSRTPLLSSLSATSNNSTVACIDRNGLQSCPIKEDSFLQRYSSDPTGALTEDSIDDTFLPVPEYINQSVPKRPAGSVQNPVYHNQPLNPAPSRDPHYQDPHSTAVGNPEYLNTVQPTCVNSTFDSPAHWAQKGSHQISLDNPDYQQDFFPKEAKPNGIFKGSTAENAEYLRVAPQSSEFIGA
# Protocol: The PathScan® Phospho-EGF Receptor (Tyr1068) Sandwich ELISA Kit is a solid phase sandwich enzyme-linked immunosorbent assay (ELISA) that detects endogenous levels of phospho-EGF Receptor (Tyr1068) protein. […] NCI-H3255 cells were licensed from NCI. […] All cells were cultured according to ATCC recommendations. A549, NCI-H1975, PC9, and NCI-H3255 cells were grown in RPMI media (Invitrogen, Carlsbad, Calif.) supplemented with 10% FBS (Sigma, St Louis, Mo.), and with 1% Penn/Strep (Invitrogen).
# Each compound was prepared as a DMSO stock solution (10 mM). Compounds were tested in duplicate on each plate, with an 11-point serial dilution curve (1:3 dilution). Compound treatment (50 μL) was added from the compound dilution plate to the cell plate. […] Plates were then incubated for 2 hr at 37° C., 5% CO2. […] The wash was then flicked off and ice-cold lysis buffer was added to the cells (50 μL/well). The plate was shaken for 20-30 min at 4° C. to completely lyse the cells. Sample diluent (50 μL/well) was added to the ELISA plate, and the lysate (50 μL) was diluted into the sample diluent in each well of the ELISA plate. Plates were sealed and incubated overnight at 4° C. with shaking. The next day, wells were washed four times with 1× Wash Buffer; plates were taped on lint-free paper after the final wash prior to adding Add Detection Antibody (green, 100 μL/well) to each well and incubating for 1 hr at 37° C. After incubation, wells were washed as described. HRP-Linked secondary antibody (red, 100 μL/well) was added to each well and incubated for 30 min at 37° C. After incubation, the wells were washed as described. TMB Substrate (100 μL/well) was added to each well and the plate incubated for 10 min at 37° C. or 30 min at rt maximum. Stop Solution (100 μL/well) was added to each well at the end of the incubation and plates were shaken gently for a few seconds. […] Data were analyzed using a four-parameter fit in Microsoft Excel.
# T1 sequence (P00533 25-1210 T790M/L858R): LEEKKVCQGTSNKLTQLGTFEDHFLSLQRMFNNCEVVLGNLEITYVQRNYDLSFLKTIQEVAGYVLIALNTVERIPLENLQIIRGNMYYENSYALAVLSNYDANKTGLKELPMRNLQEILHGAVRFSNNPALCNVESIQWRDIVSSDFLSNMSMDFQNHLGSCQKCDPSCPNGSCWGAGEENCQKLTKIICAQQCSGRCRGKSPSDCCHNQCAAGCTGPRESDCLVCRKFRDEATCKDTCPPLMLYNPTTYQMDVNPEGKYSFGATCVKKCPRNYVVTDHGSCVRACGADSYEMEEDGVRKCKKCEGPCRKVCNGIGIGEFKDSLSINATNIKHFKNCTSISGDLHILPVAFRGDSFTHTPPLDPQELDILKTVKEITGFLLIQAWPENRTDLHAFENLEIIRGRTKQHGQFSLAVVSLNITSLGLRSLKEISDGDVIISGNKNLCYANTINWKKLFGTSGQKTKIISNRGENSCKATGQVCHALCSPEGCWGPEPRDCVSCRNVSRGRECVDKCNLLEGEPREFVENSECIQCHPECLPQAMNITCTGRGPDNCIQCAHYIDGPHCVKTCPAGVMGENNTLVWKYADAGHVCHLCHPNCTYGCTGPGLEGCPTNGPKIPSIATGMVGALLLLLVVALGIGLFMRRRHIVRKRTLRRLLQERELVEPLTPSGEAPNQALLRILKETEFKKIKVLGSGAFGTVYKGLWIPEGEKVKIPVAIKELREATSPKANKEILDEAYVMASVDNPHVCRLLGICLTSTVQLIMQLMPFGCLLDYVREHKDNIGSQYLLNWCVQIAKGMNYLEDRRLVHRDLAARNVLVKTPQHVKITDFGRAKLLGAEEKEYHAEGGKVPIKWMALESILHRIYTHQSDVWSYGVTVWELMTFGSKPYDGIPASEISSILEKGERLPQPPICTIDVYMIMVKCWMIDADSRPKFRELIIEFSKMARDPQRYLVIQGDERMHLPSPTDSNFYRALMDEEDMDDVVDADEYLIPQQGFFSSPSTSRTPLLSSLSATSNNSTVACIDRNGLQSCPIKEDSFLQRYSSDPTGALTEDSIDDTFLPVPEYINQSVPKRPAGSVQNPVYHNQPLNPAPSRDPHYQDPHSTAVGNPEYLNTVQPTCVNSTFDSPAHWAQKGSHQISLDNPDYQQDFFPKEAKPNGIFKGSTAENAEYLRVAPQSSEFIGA
# T2 sequence (P00533 25-1210): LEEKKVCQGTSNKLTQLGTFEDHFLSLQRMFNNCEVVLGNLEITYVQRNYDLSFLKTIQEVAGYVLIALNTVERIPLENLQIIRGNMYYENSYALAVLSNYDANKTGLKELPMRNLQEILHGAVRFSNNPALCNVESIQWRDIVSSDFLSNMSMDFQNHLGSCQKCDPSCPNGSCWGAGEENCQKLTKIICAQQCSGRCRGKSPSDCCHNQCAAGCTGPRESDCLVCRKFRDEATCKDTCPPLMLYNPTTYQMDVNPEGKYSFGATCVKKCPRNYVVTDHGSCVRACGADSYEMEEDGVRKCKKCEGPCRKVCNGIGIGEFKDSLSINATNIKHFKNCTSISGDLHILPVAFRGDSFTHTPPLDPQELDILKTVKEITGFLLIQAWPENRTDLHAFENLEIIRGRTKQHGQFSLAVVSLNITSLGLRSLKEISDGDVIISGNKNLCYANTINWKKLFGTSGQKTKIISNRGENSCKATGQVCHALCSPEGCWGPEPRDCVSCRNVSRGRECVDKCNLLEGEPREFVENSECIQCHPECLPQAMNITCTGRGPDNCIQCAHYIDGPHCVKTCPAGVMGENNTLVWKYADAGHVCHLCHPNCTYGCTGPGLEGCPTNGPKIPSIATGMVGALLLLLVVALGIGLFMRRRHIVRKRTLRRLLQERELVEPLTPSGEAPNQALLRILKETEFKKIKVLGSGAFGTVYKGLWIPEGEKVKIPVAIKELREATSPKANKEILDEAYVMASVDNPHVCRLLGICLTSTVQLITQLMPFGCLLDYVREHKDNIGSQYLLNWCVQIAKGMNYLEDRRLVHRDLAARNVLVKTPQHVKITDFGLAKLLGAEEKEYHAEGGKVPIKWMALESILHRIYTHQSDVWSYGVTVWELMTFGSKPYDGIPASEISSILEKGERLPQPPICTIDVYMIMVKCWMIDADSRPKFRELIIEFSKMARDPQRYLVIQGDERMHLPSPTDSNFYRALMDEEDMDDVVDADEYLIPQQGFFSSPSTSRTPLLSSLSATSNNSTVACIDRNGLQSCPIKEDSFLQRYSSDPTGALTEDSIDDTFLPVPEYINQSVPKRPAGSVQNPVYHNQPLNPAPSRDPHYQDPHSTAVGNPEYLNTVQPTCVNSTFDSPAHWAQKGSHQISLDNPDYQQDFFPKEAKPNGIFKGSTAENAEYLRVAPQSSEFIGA
Structure (SMILES),IC50 [1] [nM],IC50 [2] [nM],IC50 (EGFR del/T790M (PC9-DRH)) [nM]
"C=CC(=O)N1C[C@@H](F)[C@H](Nc2nc(Nc3ccc(N4CCN(C)CC4)cc3)c3ncn(C(C)C)c3n2)C1 (relative stereo) [Example 19, 1-((trans)-3-fluoro-4-((9-isopropyl-6-((4-(4-methylpiperazin-1-yl)phenyl)amino) -9H-purin-2-yl)amino)pyrrolidin-1-yl)prop-2-en-1-one]",10,194,25
"C=CC(=O)N1C[C@@H](F)[C@H](Nc2nc(Nc3ccc(N4CCN(C)CC4)cc3)c3ncn(C)c3n2)C1 (relative stereo) [Example 20, 1-((trans)-3-fluoro-4-((9-methyl-6-((4-(4-methylpiperazin-1-yl)phenyl)amino)-9H -purin-2-yl)amino)pyrrolidin-1-yl)prop-2-en-1-one]",11,119,2
"C=CC(=O)N1C[C@H]2CN(c3nc(Nc4ccc(N5CCN(C)CC5)cc4)c4ncn(C(C)C)c4n3)C[C@]2(OC)C1 (single isomer, unassigned) [Example 64]",8,127,8
"C=CC(=O)Nc1cccc(Oc2nc(Nc3cnn(C)c3)c3ncn(C(C)C)c3n2)c1 [Example 3, N-(3-((9-isopropyl-6-((1-methyl-1H-pyrazol-4-yl)amino)-9H-purin-2-yl)oxy)phenyl)acrylamide trifluoroacetate]",20,162,8
"C=CC(=O)N[C@@H]1CN(c2nc(Nc3cn(C4CN(C)C4)nc3OC)c3ncn(C)c3n2)C[C@H]1F [Example 5, N-((3R,4R)-4-fluoro-1-(6-((3-methoxy-1-(1-methylazetidin-3-yl)-1H-pyrazol-4-yl)amino)-9-methyl-9H-purin-2-yl)pyrrolidin-3-yl)acrylamide]",17,546,8
"C=CC(=O)NC1(C)CN(c2nc(Nc3cnn(C)c3)c3ncn(C(C)(C)C)c3n2)C1 [Example 8, N-(1-(9-(tert-butyl)-6-((1-methyl-1H-pyrazol-4-yl)amino)-9H-purin-2-yl)-3-methylazetidin-3-yl)acrylamide]",97,4480,37
"C=CC(=O)N[C@H]1CCN(c2nc(Nc3ccc(N4CCN(C)CC4)cc3)c3ncn(C(C)(C)C)c3n2)C1 [Example 9, (S)-N-(1-(9-(tert-butyl)-6-((4-(4-methylpiperazin-1-yl)phenyl)amino)-9H-purin-2-yl)pyrrolidin-3-yl)acrylamide]",32,2740,26
"C=CC(=O)NC1(C)CN(c2nc(Nc3ccc(N4CCN(C)CC4)cc3)c3ncn(C(C)C)c3n2)C1 [Example 12, N-(1-(9-isopropyl-6-((4-(4-methylpiperazin-1-yl)phenyl)amino)-9H-purin-2-yl)-3-methylazetidin-3-yl)acrylamide]",6,140,10
"C=CC(=O)N1C[C@@H]2CN(c3nc(Nc4cnn(C)c4)c4ncn(CC)c4n3)C[C@@H]2C1 [Example 16, 1-((cis)-5-(9-ethyl-6-((1-methyl-1H-pyrazol-4-yl)amino)-9H-purin-2-yl)hexahydropyrrolo[3,4-c]pyrrol-2(1H)-yl)prop-2-en-1-one]",88,507,91
"C=CC(=O)N1C[C@@H]2CN(c3nc(Nc4ccc(N5CCN(C)CC5)cc4)c4ncn(C(C)(C)C)c4n3)C[C@@H]2C1 [Example 18, 1-((cis)-5-(9-(tert-butyl)-6-((4-(4-methylpiperazin-1-yl)phenyl)amino)-9H-purin-2-yl)hexahydropyrrolo[3,4-c]pyrrol-2(1H)-yl)prop-2-en-1-one]",32,4570,27
"C=CC(=O)Nc1cccc(Oc2nc(Nc3ccc(N4CCN(C)CC4)cc3)c3ncn(C(C)C)c3n2)c1 [Example 22, N-(3-((9-isopropyl-6-((4-(4-methylpiperazin-1-yl)phenyl)amino)-9H-purin-2-yl)oxy)phenyl)acrylamide]",6,39,9
"C=CC(=O)N1C[C@@H]2CN(c3nc(Nc4ccc(N5CCN(C)CC5)cc4)c4ncn(C)c4n3)C[C@@H]2C1 [Example 33, 1-((cis)-5-(9-methyl-6-((4-(4-methylpiperazin-1-yl)phenyl)amino)-9H-purin-2-yl)hexahydropyrrolo[3,4-c]pyrrol-2(1H)-yl)prop-2-en-1-one]",18,324,4
"C=CC(=O)N[C@H]1CCN(c2nc(Nc3ccc(N4CCN(C(C)C)CC4)cc3)c3ncn(C(C)C)c3n2)C1 [Example 36, (S)-N-(1-(9-isopropyl-6-((4-(4-isopropylpiperazin-1-yl)phenyl)amino)-9H-purin-2-yl)pyrrolidin-3-yl)acrylamide]",8,242,9
"C=CC(=O)N[C@H]1CCN(c2nc(Nc3ccc(N4CCN(C)CC4)cc3)c3ncn(C)c3n2)C1 [Example 38, (S)-N-(1-(9-methyl-6-((4-(4-methylpiperazin-1-yl)phenyl)amino)-9H-purin-2-yl)pyrrolidin-3-yl)acrylamide]",15,255,6

# Second part, the molecule after the results:
IC50 [1] [nM],IC50 [2] [nM],IC50 (EGFR del/T790M (PC9-DRH)) [nM],Structure (SMILES)
468,≥ 10000,2500,"C=CC(=O)N1C[C@@H]2CN(c3nc(Nc4cnn(C)c4C)c4ncn(C(C)C)c4n3)C[C@@H]2C1 [Example 17, 1-((cis)-5-(6-((1,5-dimethyl-1H-pyrazol-4-yl)amino)-9-isopropyl-9H-purin-2-yl)hexahydropyrrolo[3,4-c]pyrrol-2(1H)-yl)prop-2-en-1-one]"
49,805,6,"C=CC(=O)N1C[C@@H]2CN(c3nc(Nc4cnn(C)c4)c4ncn(C(C)C)c4n3)C[C@@H]2C1 [Example 25, 1-((cis)-5-(9-isopropyl-6-((1-methyl-1H-pyrazol-4-yl)amino)-9H-purin-2-yl)hexahydropyrrolo[3,4-c]pyrrol-2(1H)-yl)prop-2-en-1-one]"
8,90,–,"C=CC(=O)N[C@H]1CN(c2nc(Nc3cnn(CCN(C)C)c3)c3ncn(C(C)C)c3n2)C[C@@H]1F [Example 67, N-((3S,4S)-1-(6-((1-(2-(dimethylamino)ethyl)-1H-pyrazol-4-yl)amino)-9-isopropyl-9H-purin-2-yl)-4-fluoropyrrolidin-3-yl)acrylamide]"
18,707,–,"C=CC(=O)N[C@@H]1CN(c2nc(Nc3cnn(CCN(C)C)c3)c3ncn(C(C)(C)C)c3n2)C[C@H]1F [Example 68, N-((3R,4R)-1-(9-(tert-butyl)-6-((1-(2-(dimethylamino)ethyl)-1H-pyrazol-4-yl)amino)-9H-purin-2-yl)-4-fluoropyrrolidin-3-yl)acrylamide]"
37,712,–,"C=CC(=O)N[C@H]1CCN(c2nc(Nc3cnn([C@H]4CCN(C)C4)c3)c3ncn(C(C)C)c3n2)C1 [Example 69, N—((S)-1-(9-isopropyl-6-((1-((S)-1-methylpyrrolidin-3-yl)-1H-pyrazol-4-yl)amino) -9H-purin-2-yl)pyrrolidin-3-yl)acrylamide]"
29,609,–,"C=CC(=O)N[C@@H]1CN(c2nc(Nc3cnn(C4CCN(C)CC4)c3)c3ncn(C(C)(C)C)c3n2)C[C@H]1F [Example 70, N-((3R,4R)-1-(9-(tert-butyl)-6-((1-(1-methylpiperidin-4-yl)-1H-pyrazol-4-yl)amino) -9H-purin-2-yl)-4-fluoropyrrolidin-3-yl)acrylamide]"
20,167,–,"C=CC(=O)N[C@@H]1CN(c2nc(Nc3cnn(C4CCN(C)CC4)c3)c3ncn(C(C)C)c3n2)C[C@H]1F [Example 71, N-((3R,4R)-4-fluoro-1-(9-isopropyl-6-((1-(1-methylpiperidin-4-yl)-1H-pyrazol-4-yl)amino)-9H-purin-2-yl)pyrrolidin-3-yl)acrylamide]"
132,3450,–,"C=CC(=O)N[C@@H]1CN(c2nc(Nc3cn(CC(C)O)nc3OC)c3ncn(C)c3n2)C[C@H]1F (stereo partly drawn) [Example 83, N-((3R,4R)-4-fluoro-1-(6-((1-(2-hydroxypropyl)-3-methoxy-1H-pyrazol-4-yl)amino)-9-methyl-9H-purin-2-yl)pyrrolidin-3-yl)acrylamide]"
32,1220,–,"C=CC(=O)N[C@@H]1CN(c2nc(Nc3cn(CC(C)O)nc3OC)c3ncn(CC)c3n2)C[C@H]1F (stereo partly drawn) [Example 86, N-((3R,4R)-1-(9-ethyl-6-((1-(2-hydroxypropyl)-3-methoxy-1H-pyrazol-4-yl)amino) -9H-purin-2-yl)-4-fluoropyrrolidin-3-yl)acrylamide]"
–,–,3,"C=CC(=O)N[C@@H]1CN(c2nc(Nc3ccc(N4CCC(N(C)C)CC4)cc3)c3ncn(C(C)C)c3n2)C[C@H]1F [Example 89, N-((3R,4R)-1-(6-((4-(4-(dimethylamino)piperidin-1-yl)phenyl)amino)-9-isopropyl-9H-purin-2-yl)-4-fluoropyrrolidin-3-yl)acrylamide]"
–,–,9,"C=CC(=O)N[C@@H]1CN(c2nc(Nc3ccc(N4CCC(N(C)C)CC4)cc3OC)c3ncn(C(C)C)c3n2)C[C@H]1F [Example 90, N-((3R,4R)-1-(6-((4-(4-(dimethylamino)piperidin-1-yl)-2-methoxyphenyl)amino)-9-isopropyl-9H-purin-2-yl)-4-fluoropyrrolidin-3-yl)acrylamide]"

# Reference: patent publication US9290496B2, “Purine derivatives” (PFIZER INC., priority 2013, dated 2016)
